According to US10179142B2, “Treatment and/or prevention of bone metastasis” (The Arizona Board of Regents on behalf of The University of …, priority 2013, dated 2019):
Entries after “also recorded” stand apart in the source; their conditions may differ.

Columns and labels:
Type in all cases: cell-based, human
PC-3 cells [1] = test: Matrigel invasion assay; conditions: for invasion: prostate cancer cells, concentration not given
Method: PC-3 cells were pre-treated with DMSO vehicle control or with drug for 4 hours in T-25 flasks. Thereafter, 50,000 cells were then plated into the upper chamber that has been pre-coated with Matrigel (BD Sciences, San Jose, Ca) in the presence of drug or DMSO and serum-free media. The bottom well contained complete media including 10% FBS and 0.5% BSA as chemoattractants. After 24 hours, the upper chambers were removed, and any remaining cells within the insert were wiped with a cotton swab. Invading cells were then stained with 2% crystal violet in 20% methanol. Cells were then counted using a Zeiss stereomicroscope at 20× power. 10 random fields were counted. The results represent an average of two independent experiments, each run in triplicates.
As reported previously, inhibition of Tiam-1 and subsequent inactivation of downstream signaling proteins leads to reduced actin cytoskeleton rearrangements resulting in decreased cell motility. […] FIG. 4, Panel A, A wound channel was introduced near-to-confluent non-treated or treated PC-3 cells with 10 μM V pKLO1 mock-transfection control cells, and shRNA cell line 1.2 (GS-1). […] FIG. 4, Panel B, PC-3 cells and Tiam-1 shRNA cell line 1.2 (shRNA 1.2) were treated as indicated, then stimulated with 20% FBS for 20 minutes to induce lamellipodia formation and stained with rhodamin phalloidin. Individual lamellipodia were counted in a minimum of 10 cells in each respective group and statistical analysis was performed using a Student's t-test. […] FIG. 4, Panel C, pKLO1 PC-3 cells, pKLO1 treated with 10 μM compound V and shRNA 1.2 cells were allowed to invade through Matrigel-coated transwell plates. Invading cells were stained after 12 hours and counted at 20× power (left side). […] In order to test our hypothesis, cells were stained with rhodamin phalloidin and then analyzed for actin/cytoskeleton formations, such as lamellipodia. […] Thus, the observed reduction in cellular motility in compound V treated cells and Tiam-1 silenced cells may be the result of f-actin disruption and reduced frequencies of lamellipodia formation. […]

[2] = tested on: active Rac1 in PC-3 cells; test: Rac1 activation assay (GLISA); conditions: 1 μM, 4 hours, then 50 ng/ml hHGF for 2 minutes
Method: Rac1 activity was determined by the colorimetric GLISA Kit BK128 (Cytoskeleton, Inc, Denver, Co). Briefly, PC-3 (PC-3, pKLO.1, GS-1 and GS-2 cells), DU 145 and LNCap cells were grown to 75% confluence and then serum starved for 48 hours. Drugs were then added for 4 hours and cells were stimulated with 50 ng/ml hHGF (Gibco Life Sciences, Carlsbad, Ca) for 2 minutes. Cells were then lysed and harvested as described in the kit-supplied protocol. Protein concentration was normalized to 1.0 g/l. Plates were read in an absorbance spectrophotometer at 490 nm at 24° C. with 5 s medium orbital shaking. Data were analyzed as described in the supplied protocol. The results represent an average of three independent experiments, each run in duplicates.
A cellular screen of all hit compounds was conducted using the GLISA Rac1 activation kit. Briefly, PC-3 cells were drugged for 4 hours at 1 μM concentration with the selected compounds. Cells were then stimulated with 50 ng/ml of hHGF for 2 minutes. […] The isovolume of Tiam-1 PH domain (PDB 1FOE) was generated using GRID for the H-bond acceptor (−3.6 kcal/mol), the H-bond donor (−7.3 kcal/mol) and hydrophobic (−2.5 kcal/mol) probes. The critical residues are labeled around the isovolume surfaces. The dash lines represent hydrogen bonds between protein and inhibitors. […]

PC-3 cells [3] = test: Lamellipodia forming assay
Method: Glass coverslips were sterilized with 100% EtOH and placed in 6-well plates. PC-3 cells, pKLO.1, GS-1 and GS-2 cells were plated at 3000 cells/well and allowed to adhere overnight. Cells where then serum starved for 48 hours, then treated with the indicated drug for 12 hours, and stimulated with 20% FBS for 30 minutes. Coverslips were then removed from the plates, washed twice with cold PBS, and fixed with 3.7% paraformaldehyde solution in PBS for 10 minutes. Cells were then permeabilized using 0.1% Triton X-100 for 5 minutes. Cells were stained with rhodamine phalloidin (Invitrogen, Carlsbad, Calif.) for 20 minutes using the supplied protocol. Coverslips were then air-dried and mounted using ProLong Gold with DAPI (Invitrogen, Carlsbad, Calif.) and stored at 4° C. Cells were visualized at 40× using Olympus Bx-50 microscope with the CellSens imaging software. Individual lamellipodia were counted in a minimum of 10 cells in each respective group and statistical analysis was done using a Student's t-test.
As reported previously, inhibition of Tiam-1 and subsequent inactivation of downstream signaling proteins leads to reduced actin cytoskeleton rearrangements resulting in decreased cell motility. […] FIG. 4, Panel A, A wound channel was introduced near-to-confluent non-treated or treated PC-3 cells with 10 μM V pKLO1 mock-transfection control cells, and shRNA cell line 1.2 (GS-1). […] FIG. 4, Panel B, PC-3 cells and Tiam-1 shRNA cell line 1.2 (shRNA 1.2) were treated as indicated, then stimulated with 20% FBS for 20 minutes to induce lamellipodia formation and stained with rhodamin phalloidin. Individual lamellipodia were counted in a minimum of 10 cells in each respective group and statistical analysis was performed using a Student's t-test. […] Invading cells were stained after 12 hours and counted at 20× power (left side). […] In order to test our hypothesis, cells were stained with rhodamin phalloidin and then analyzed for actin/cytoskeleton formations, such as lamellipodia. […]

prostate cancer cells = test: Colony formation (FIG. 4, cell line not given)
Method: PC-3, LNCaP and DU145 cells were plated at 1000 cells/well into standard 6-well plates (3.5 cm) in the presence of complete media. The next day cells were drugged at increasing concentrations ranging from 1 to 50 μM in triplicate wells. Cells were viewed twice weekly to check for colony growth and confluence. Media and respective drugs were carefully replaced every three days. At day 12, media was aspirated and resulted colonies were stained with crystal violet (0.5% w/v) dissolved in ethanol for one minute, washed with water, and air dried as already described in reference. The resulting colonies were counted utilizing an Optronix Colony counter using ColCount software (Oxford Optronix Ltd, UK). The results represent an average of two independent experiments, each run in triplicates.

PC-3 cells [4] = test: Migration wound closure assay; conditions: for migration / motility (wound healing): prostate cancer cells, concentration not given
Method: PC-3, DU145 and LNCaP cells were grown in six-well plates in the presence of 10% FBS. Once the cells formed a monolayer, near confluency a wound was done manually with a sterile […] pipette tip in the center of each well. Cells were treated with vehicle alone (DMSO) or 10 μM of compound IV and were grown in the presence of 2% FBS. After 18 hours, the migrating cells were photographed. The wound closure was quantified by measuring the distance between the two sides of the wound. The results represent an average of two independent experiments, each run in triplicates.
As reported previously, inhibition of Tiam-1 and subsequent inactivation of downstream signaling proteins leads to reduced actin cytoskeleton rearrangements resulting in decreased cell motility. […] FIG. 4, Panel A, A wound channel was introduced near-to-confluent non-treated or treated PC-3 cells with 10 μM V pKLO1 mock-transfection control cells, and shRNA cell line 1.2 (GS-1). […] FIG. 4, Panel B, PC-3 cells and Tiam-1 shRNA cell line 1.2 (shRNA 1.2) were treated as indicated, then stimulated with 20% FBS for 20 minutes to induce lamellipodia formation and stained with rhodamin phalloidin. Individual lamellipodia were counted in a minimum of 10 cells in each respective group and statistical analysis was performed using a Student's t-test. […] FIG. 4, Panel C, pKLO1 PC-3 cells, pKLO1 treated with 10 μM compound V and shRNA 1.2 cells were allowed to invade through Matrigel-coated transwell plates. Invading cells were stained after 12 hours and counted at 20× power (left side). […] In order to test our hypothesis, cells were stained with rhodamin phalloidin and then analyzed for actin/cytoskeleton formations, such as lamellipodia. […] Thus, the observed reduction in cellular motility in compound V treated cells and Tiam-1 silenced cells may be the result of f-actin disruption and reduced frequencies of lamellipodia formation. We next tested whether the compound of Formula V affected invasion of PC-3 through Matrigel-coated transwells.

[5] = prostate cancer cells, concentration not given

For c1ccc(Cn2nnc3c(Sc4nnc(-c5ccncc5)o4)ncnc32)cc1 [VI], the invasion (PC-3 cells [1]) was “inhibits; also recorded: reduce invasion”, the “reduction of active Rac1” value [2] was “most pronounced and significant reduction of active Rac1” and the lamellipodia formation (PC-3 cells [3]; [5]) was “inhibits; also recorded: reduce lamellipodia formation”. For the same molecule, the colony formation (prostate cancer cells) was “inhibits” and the “migration / motility (wound healing)” value (PC-3 cells [4]) was “inhibits; also recorded: reduce migration”.

With Cc1ccc(-n2cc(-c3cccs3)nc2SCc2n[nH]c(=S)n2Cc2ccccc2)cc1 [compound V] the “invasion through Matrigel-coated transwells” value (PC-3 cells [1]; PC-3 cells, 10 μM) was “significantly reduced amount of invading cells”, the invasion (PC-3 cells [1]) was “inhibits; also recorded: reduce invasion” and the “reduction of active Rac1” value [2] was “most pronounced and significant reduction of active Rac1”. For the same molecule, the lamellipodia formation (PC-3 cells [3]; PC-3 cells, 10 μM, stimulation with 20% FBS) was “significantly reduced the frequency of lamellipodia formation”, the lamellipodia formation (PC-3 cells [3]; [5]) was “inhibits; also recorded: reduce lamellipodia formation” and the colony formation (prostate cancer cells) was “inhibits”. The wound closure (PC-3 cells [4]; PC-3 cells, 10 μM, after 18 hours) was “significant inability to close a wound” and the “migration / motility (wound healing)” value (PC-3 cells [4]) was “inhibits; also recorded: reduce migration”.
